Measurements as given in patent US11666558B2, “Methods of treating intraocular pressure with activators of Tie-2” (EyePoint Pharmaceuticals, Inc., priority 2015, dated 2023).
Where two headings read alike, the source gives them in different places.

Test: Ocular tissue concentrations (aqueous humor, vitreous humor, iris, retina, choroid, cornea) after topical ocular, subcutaneous and intravitreal administration
Format: in vivo, New Zealand White rabbits
Details: for Cornea Conc. (ng/mL) OS: Cornea homogenate; for Cornea Conc. (ng/mL) OS / concentration at 0.5 h / concentration at 1 h / concentration at 2 h / concentration at 4 h: subcutaneous 5 mg/kg/dose; for concentration at 6 hr / concentration at 24 hr / concentration at 48 hr / concentration at 72 hr / concentration at 0.5 h / concentration at 1 h / concentration at 2 h / concentration at 4 h: New Zealand White, rabbit; for concentration at 6 hr / concentration at 24 hr / concentration at 48 hr / concentration at 72 hr: other: intravitreal, 2.5 mg/eye; for concentration at 0.5 h / concentration at 1 h / concentration at 2 h / concentration at 4 h: subcutaneous, 5 mg/kg/dose
Method: To measure the concentration of Compound 1 in plasma and ocular tissues following topical ocular, subcutaneous, and intravitreal administration, New Zealand White rabbits were administered Compound 1, and plasma and ocular samples were collected at pre-determined time points. Compound 1 formulations were prepared fresh on each day of dosing.
Ocular tissue samples from both eyes of each animal were collected and weights were recorded. Plasma and ocular tissue sample concentrations of Compound 1 were determined by LC-MS/MS.
New Zealand White rabbits weighing 2.5 to 3.5 kg were used on this study. Rabbits were housed one per cage. Animals were not fasted and only healthy animals with no ocular illness were used. Two rabbits per group were sacrificed at each of four ocular tissue sampling time points for a total of eight rabbits per group.
Animals were anesthetized for ocular (topical) and intravitreal dosing following the 12IA7 IACUC protocol. Each rabbit received a bolus dose of test formulation either via topical ocular administration 3 times daily on Days 1 and 2 (at 0, 6, and 12 hours), and once on Day 3 (at 0 hours) into both eyes; via intravitreal administration into both eyes once on Day 1 (at 0 hours); or via subcutaneous administration 2 times daily on Days 1 and 2 (at 0 and 8 hours) and once daily on Day 3 (at 0 hours). Doses were given within an approximately 1 hour window each day where applicable.
On Day 1, for intravitreal administration, or on Day 3, for topical ocular and subcutaneous administration, at the appropriate ocular tissue collection time points, animals were euthanized and both eyes were enucleated immediately. Following enucleation, each eye was rinsed with phosphate-buffered saline. Ocular tissue samples from both eyes of each animal were collected at predetermined time points and weights were recorded. All the samples were frozen immediately on dry ice, and stored at −60° C. to −80° C. pending bioanalysis.
An LC-MS/MS method was developed for the determination of Compound 1 in rabbit aqueous tissues (plasma, aqueous and vitreous humor) and solid ocular tissue samples. A pre-study standard curve was analyzed to determine the specificity, range, and lower limit of quantitation of the method. Plasma and tissue homogenate study samples were extracted and analyzed. All the samples were treated identically to the standards.
One eight-point standard curve was used in each analytical batch. To be accepted, each batch must have had at least five of eight standards with accuracy within ±20% of nominal, except at the lower limit of quantification (LLOQ), where ±25% was acceptable.
Concentration versus time data is plotted in FIGS. 3-16. All data are expressed as ng/g of the free drug. Samples that were below the limit of quantitation (0.2 ng/mL) were not used in the calculation of averages.

[1] = choroid homogenate, Choroid homogenate, left eye, intravitreal 2.5 mg/eye (group 5), individual animals, read-out: Conc. (ng/mL) OS
[2] = choroid homogenate, Choroid homogenate, OD, sodium salt, intravitreal 2.5 mg/eye, Group 4, read-out: Choroid Conc. (ng/mL) OD
[3] = choroid homogenate, Choroid homogenate, OS, sodium salt, intravitreal 2.5 mg/eye, Group 4, read-out: Choroid Conc. (ng/mL) OS
[4] = choroid homogenate, Choroid homogenate, right eye, intravitreal 2.5 mg/eye (group 5), individual animals, read-out: Conc. (ng/mL) OD
[5] = choroid homogenate, Choroid homogenate, OD, sodium salt, Group 2, read-out: Choroid Conc. (ng/mL) OD
[6] = choroid homogenate, Choroid homogenate, OS, sodium salt, Group 2, read-out: Choroid Conc. (ng/mL) OS
[7] = choroid, Choroid, OD, sodium salt, intravitreal 2.5 mg/eye, Group 4, read-out: Choroid Conc. (ng/g) OD
[8] = choroid, Choroid, OS, sodium salt, intravitreal 2.5 mg/eye, Group 4, read-out: Choroid Conc. (ng/g) OS
[9] = choroid, Choroid, average, intravitreal 2.5 mg/eye (group 5), read-out: Avg.
[10] = choroid, Choroid, left eye, intravitreal 2.5 mg/eye (group 5), individual animals, read-out: Conc. (ng/g) OS
[11] = choroid, Choroid, sodium salt, intravitreal 2.5 mg/eye, Group 4, read-out: Choroid Avg.
[12] = choroid, Choroid, right eye, intravitreal 2.5 mg/eye (group 5), individual animals, read-out: Conc. (ng/g) OD
[13] = choroid, Choroid, OD, sodium salt, Group 2, read-out: Choroid Conc. (ng/g) OD
[14] = choroid, Choroid, OS, sodium salt, Group 2, read-out: Choroid Conc. (ng/g) OS
[15] = choroid, Choroid, free acid, Group 3, read-out: Choroid Average
[16] = choroid, Choroid, sodium salt, Group 2, read-out: Choroid Average

COC(=O)N[C@@H](Cc1ccccc1)C(=O)N[C@@H](Cc1ccc(NS(=O)(=O)O)cc1)c1csc(-c2cccs2)n1 [Compound 1]
Cornea Conc. (ng/mL) OS (1 hr, OS, free acid, Group 3): BLOQ (Below the limit of quantitation (0.5 ng/mL)) | Cornea Conc. (ng/mL) OS (2 hr, OS, free acid, Group 3): BLOQ (Below the limit of quantitation (0.5 ng/mL)) | concentration at 6 hr [1]: 63400 ng/mL | concentration at 24 hr [2]: 11800 ng/mL | concentration at 24 hr [3]: 9890 ng/mL | concentration at 24 hr [1]: 28400 ng/mL | concentration at 48 hr [2]: 3480 ng/mL | concentration at 48 hr [3]: 3740 ng/mL | concentration at 48 hr [1]: 9320 ng/mL | concentration at 48 hr [4]: 9940 ng/mL | concentration at 72 hr [3]: 282 ng/mL | concentration at 72 hr [1]: 2660 ng/mL | concentration at 72 hr [4]: 2180 ng/mL | concentration at 0.5 h [5]: 24 ng/mL | concentration at 0.5 h (choroid homogenate, Choroid homogenate, OS, free acid, Group 3, read-out: Choroid Conc. (ng/mL) OS): 7.55 ng/mL | concentration at 0.5 h [6]: 25.6 ng/mL | concentration at 1 h (choroid homogenate, Choroid homogenate, 1 hr, OD, free acid, Group 3, read-out: Choroid Conc. (ng/mL) OD): 6.04 ng/mL | concentration at 1 h (choroid homogenate, Choroid homogenate, 1 hr, OD, sodium salt, Group 2, read-out: Choroid Conc. (ng/mL) OD): 29.1 ng/mL | concentration at 1 h (choroid homogenate, Choroid homogenate, 1 hr, OS, free acid, Group 3, read-out: Choroid Conc. (ng/mL) OS): 8.01 ng/mL | concentration at 1 h (choroid homogenate, Choroid homogenate, 1 hr, OS, sodium salt, Group 2, read-out: Choroid Conc. (ng/mL) OS): 13.1 ng/mL | concentration at 2 h (choroid homogenate, Choroid homogenate, 2 hr, OD, free acid, Group 3, read-out: Choroid Conc. (ng/mL) OD): 3.32 ng/mL | concentration at 2 h (choroid homogenate, Choroid homogenate, 2 hr, OS, free acid, Group 3, read-out: Choroid Conc. (ng/mL) OS): 4.84 ng/mL | concentration at 4 h (choroid homogenate, Choroid homogenate, OD, free acid, Group 3, read-out: Choroid Conc. (ng/mL) OD): 4.82 ng/mL | concentration at 4 h [5]: 1.7 ng/mL | concentration at 4 h [6]: 1.22 ng/mL | concentration at 0.5 h (choroid homogenate, TABLE 16: Choroid homogenate, OS, free acid, Group 3, read-out: Choroid Conc. (ng/mL) OS): 7.55 ng/mL | concentration at 1 h (choroid homogenate, TABLE 16: Choroid homogenate, 1 hr, OD, free acid, Group 3, read-out: Choroid Conc. (ng/mL) OD): 6.04 ng/mL | concentration at 1 h (choroid homogenate, TABLE 16: Choroid homogenate, 1 hr, OS, free acid, Group 3, read-out: Choroid Conc. (ng/mL) OS): 8.01 ng/mL | concentration at 2 h (choroid homogenate, TABLE 16: Choroid homogenate, 2 hr, OD, free acid, Group 3, read-out: Choroid Conc. (ng/mL) OD): 3.32 ng/mL | concentration at 2 h (choroid homogenate, TABLE 16: Choroid homogenate, 2 hr, OS, free acid, Group 3, read-out: Choroid Conc. (ng/mL) OS): 4.84 ng/mL | concentration at 4 h (choroid homogenate, TABLE 16: Choroid homogenate, OD, free acid, Group 3, read-out: Choroid Conc. (ng/mL) OD): 4.82 ng/mL | concentration at 6 hr [7]: 346000 ng/g | concentration at 6 hr [8]: 484000 ng/g | concentration at 6 hr [9]: 664000 ng/g | concentration at 6 hr [10]: 697000 ng/g | concentration at 6 hr [11]: 947000 ng/g | concentration at 24 hr [7]: 130000 ng/g | concentration at 24 hr [8]: 109000 ng/g | concentration at 24 hr [9]: 398000 ng/g | concentration at 24 hr [10]: 312000 ng/g | concentration at 24 hr [11]: 139000 ng/g | concentration at 48 hr [7]: 38300 ng/g | concentration at 48 hr [8]: 41100 ng/g | concentration at 48 hr [9]: 120000 ng/g | concentration at 48 hr [10]: 103000 ng/g | concentration at 48 hr [12]: 109000 ng/g | concentration at 48 hr [11]: 38600 ng/g | concentration at 72 hr [8]: 3100 ng/g | concentration at 72 hr [9]: 27600 ng/g | concentration at 72 hr [10]: 29300 ng/g | concentration at 72 hr [12]: 24000 ng/g | concentration at 72 hr [11]: 2720 ng/g | concentration at 0.5 h [13]: 264 ng/g | concentration at 0.5 h (choroid, Choroid, OS, free acid, Group 3, read-out: Choroid Conc. (ng/g) OS): 83.1 ng/g | concentration at 0.5 h [14]: 282 ng/g | concentration at 0.5 h [15]: 127 ng/g | concentration at 0.5 h [16]: 266 ng/g | concentration at 1 h (choroid, Choroid, 1 hr, OD, free acid, Group 3, read-out: Choroid Conc. (ng/g) OD): 66.4 ng/g | concentration at 1 h (choroid, Choroid, 1 hr, OD, sodium salt, Group 2, read-out: Choroid Conc. (ng/g) OD): 320 ng/g | concentration at 1 h (choroid, Choroid, 1 hr, OS, free acid, Group 3, read-out: Choroid Conc. (ng/g) OS): 88.1 ng/g | concentration at 1 h (choroid, Choroid, 1 hr, OS, sodium salt, Group 2, read-out: Choroid Conc. (ng/g) OS): 144 ng/g | concentration at 1 h (choroid, Choroid, 1 hr, free acid, Group 3, read-out: Choroid Average): 83.3 ng/g | concentration at 1 h (choroid, Choroid, 1 hr, sodium salt, Group 2, read-out: Choroid Average): 200 ng/g | concentration at 2 h (choroid, Choroid, 2 hr, OD, free acid, Group 3, read-out: Choroid Conc. (ng/g) OD): 36.5 ng/g | concentration at 2 h (choroid, Choroid, 2 hr, OS, free acid, Group 3, read-out: Choroid Conc. (ng/g) OS): 53.2 ng/g | concentration at 2 h (choroid, Choroid, 2 hr, free acid, Group 3, read-out: Choroid Average): 47.7 ng/g | concentration at 2 h (choroid, Choroid, 2 hr, sodium salt, Group 2, read-out: Choroid Average): 68.8 ng/g | concentration at 4 h (choroid, Choroid, OD, free acid, Group 3, read-out: Choroid Conc. (ng/g) OD): 53 ng/g | concentration at 4 h [13]: 18.7 ng/g | concentration at 4 h [14]: 13.4 ng/g | concentration at 4 h [15]: 61 ng/g | concentration at 4 h [16]: 15.5 ng/g | concentration at 0.5 h (choroid, TABLE 16: Choroid, OS, free acid, Group 3, read-out: Choroid Conc. (ng/g) OS): 83.1 ng/g | concentration at 0.5 h (choroid, TABLE 16: Choroid, free acid, Group 3, read-out: Choroid Average): 127 ng/g | concentration at 1 h (choroid, TABLE 16: Choroid, 1 hr, OD, free acid, Group 3, read-out: Choroid Conc. (ng/g) OD): 66.4 ng/g | concentration at 1 h (choroid, TABLE 16: Choroid, 1 hr, OS, free acid, Group 3, read-out: Choroid Conc. (ng/g) OS): 88.1 ng/g | concentration at 1 h (choroid, TABLE 16: Choroid, 1 hr, free acid, Group 3, read-out: Choroid Average): 83.3 ng/g | concentration at 2 h (choroid, TABLE 16: Choroid, 2 hr, OD, free acid, Group 3, read-out: Choroid Conc. (ng/g) OD): 36.5 ng/g
